Reference: ChEMBL document CHEMBL1151495, “Activity of new penems against defined MRSA strains” (1993)
Values after ≈ are worked out from the molar mass of the structure shown.

What was measured:
Format in all cases: functional
Staphylococcus aureus [1] = test: In vitro minimum inhibitory concentration against Staphylococcus aureus COL.
Staphylococcus aureus [2] = test: In vitro minimum inhibitory concentration against Staphylococcus aureus CDC1.
Staphylococcus aureus [3] = test: In vitro minimum inhibitory concentration against Staphylococcus aureus SN 7.
Staphylococcus aureus [4] = test: In vitro minimum inhibitory concentration against Staphylococcus aureus SN 43.

| SMILES | MIC (Staphylococcus aureus [1]) [µg/mL] | MIC (Staphylococcus aureus [2]) [µg/mL] | MIC (Staphylococcus aureus [3]) [µg/mL] | MIC (Staphylococcus aureus [4]) [µg/mL] |
| --- | --- | --- | --- | --- |
| C[C@@H](O)[C@H]1C(=O)N2C(C(=O)O)=C(COC(=O)c3ccc4ccc5ccccc5c4c3)S[C@H]12 | 6.25 (≈ 13.9 µM) | < 0.011 | < 0.011 | 6.25 (≈ 13.9 µM) |
| C[C@@H](O)[C@H]1C(=O)N2C(C(=O)O)=C(COc3ccccc3)S[C@H]12 | 50 (≈ 156 µM) | 0.39 (≈ 1.21 µM) | 50 (≈ 156 µM) | 100 (≈ 311 µM) |
| C[C@@H](O)[C@H]1C(=O)N2C(C(=O)O)=C(COC(=O)c3ccc4ccccc4c3)S[C@H]12 | 12.5 (≈ 31.3 µM) | 0.09 (≈ 0.225 µM) | 0.39 (≈ 0.976 µM) | 6.25 (≈ 15.6 µM) |
| C[C@@H](O)[C@H]1C(=O)N2C(C(=O)O)=C(COc3cncc4ccccc34)S[C@H]12 | 6.25 (≈ 16.8 µM) | 0.19 (≈ 0.51 µM) | 3.12 (≈ 8.38 µM) | 12.5 (≈ 33.6 µM) |
| C[C@@H](O)[C@H]1C(=O)N2C(C(=O)O)=C(COC(=O)c3ccc4c(ccc5ccccc54)c3)S[C@H]12 | 3.12 (≈ 6.94 µM) | 0.022 (≈ 0.0489 µM) | 0.09 (≈ 0.2 µM) | 6.25 (≈ 13.9 µM) |
| C[C@@H](O)[C@H]1C(=O)N2C(C(=O)O)=C(COC(=O)c3cccnc3)S[C@H]12 | 50 (≈ 143 µM) | 0.09 (≈ 0.257 µM) | 0.19 (≈ 0.542 µM) | 100 (≈ 285 µM) |
| C[C@@H](O)[C@H]1C(=O)N2C(C(=O)O)=C(COC(=O)c3ccccc3)S[C@H]12 | 25 (≈ 71.6 µM) | 0.09 (≈ 0.258 µM) | 0.39 (≈ 1.12 µM) | 50 (≈ 143 µM) |
| C[C@@H](O)[C@H]1C(=O)N2C(C(=O)O)=C(COC(=O)c3cn(C4CC4)c4cc(N5CCNCC5)c(F)cc4c3=O)S[C@H]12 | 6.25 (≈ 11.2 µM) | 0.39 (≈ 0.698 µM) | 1.56 (≈ 2.79 µM) | 50 (≈ 89.5 µM) |
| C[C@@H](O)[C@H]1C(=O)N2C(C(=O)O)=C(COc3cnccn3)S[C@H]12 | 100 (≈ 309 µM) | 0.19 (≈ 0.588 µM) | 0.39 (≈ 1.21 µM) | > 100 |
| C[C@@H](O)[C@H]1C(=O)N2C(C(=O)O)=C(COc3cncc(Cl)c3)S[C@H]12 | 25 (≈ 70.1 µM) | 0.09 (≈ 0.252 µM) | 0.78 (≈ 2.19 µM) | 50 (≈ 140 µM) |
| C[C@@H](O)[C@H]1C(=O)N2C(C(=O)O)=C(COc3c(I)cc(Cl)c4cccnc34)S[C@H]12 | 6.25 (≈ 11.7 µM) | 0.09 (≈ 0.169 µM) | 0.78 (≈ 1.46 µM) | 25 (≈ 46.9 µM) |
| C[C@@H](O)[C@H]1C(=O)N2C(C(=O)O)=C(COC(=O)c3cnccn3)S[C@H]12 | 100 (≈ 285 µM) | 0.19 (≈ 0.541 µM) | 0.39 (≈ 1.11 µM) | > 100 |
| C[C@@H](O)[C@H]1C(=O)N2C(C(=O)O)=C(COc3cccnc3)S[C@H]12 | 100 (≈ 310 µM) | 0.19 (≈ 0.589 µM) | 0.78 (≈ 2.42 µM) | 100 (≈ 310 µM) |
| C[C@@H](O)[C@H]1C(=O)N2C(C(=O)O)=C(COC(=O)c3cnc4ccccc4c3)S[C@H]12 | 6.25 (≈ 15.6 µM) | 0.09 (≈ 0.225 µM) | 0.19 (≈ 0.475 µM) | 12.5 (≈ 31.2 µM) |
| CC(O)[C@H]1C(=O)N2C(C(=O)O)=C(SCCNC=N)C[C@H]12.O (single isomer, unassigned) [IMIPENEM] | 25 | 0.09 | 0.19 | 25 |
| O=C(O)c1cn(C2CC2)c2cc(N3CCNCC3)c(F)cc2c1=O [CIPROFLOXACIN] |  | 0.39 (≈ 1.18 µM) | 0.78 (≈ 2.35 µM) |  |
| C[C@@H](O)[C@H]1C(=O)N2C(C(=O)O)=C(S[C@@H]3CN[C@H](C(=O)N(C)C)C3)[C@H](C)[C@H]12 [MEROPENEM] | 100 (≈ 261 µM) | 0.19 (≈ 0.495 µM) | 1.56 (≈ 4.07 µM) | 25 (≈ 65.2 µM) |
| COc1cccc(OC)c1C(=O)N[C@@H]1C(=O)N2[C@@H]1SC(C)(C)[C@@H]2C(=O)O [METHICILLIN] | > 100 | 3.12 (≈ 8.2 µM) | 6.25 (≈ 16.4 µM) | > 100 |
| C[C@@H](O)[C@H]1C(=O)N2C(C(=O)O)=C(COC(N)=O)S[C@H]12 [RITIPENEM] | 100 (≈ 347 µM) | 0.19 (≈ 0.659 µM) | 0.39 (≈ 1.35 µM) | 100 (≈ 347 µM) |
